Data reported in US20160257697A1, “THIOPHENE-SUBSTITUTED TETRACYCLIC COMPOUNDS AND METHODS OFUSE THEREOF FOR THE TREATMENT OF VIRAL DISEASES” (priority 2013, published 2016).
Like-named read-outs stand apart in the source and are kept apart here.

Columns and labels:
Assay in all cases: microbe, parasite or virus in culture
Format in all cases: cell-based, Hepatitis C virus (HCV)
Settings in all cases: Replicon Assay A
HCV replicon 1A = system: HCV replicon 1A
How it was run: (§1)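 Cells seeded 2000/well + compound; 0.5% DMSO, 5% FBS; harvest day 3, lyse. Multiplex TaqMan RT-PCR for replicon (Neo probe) and cyclophilin RNA; amounts from Ct vs log(ng) linear regression of replicon total RNA standards.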

HCV replicon 2B = system: HCV replicon 2B
How it was run: as §1

HCV replicon 1AY93H = system: HCV replicon 1AY93H
How it was run: as §1

[1] = read-out: 1A Y93H IC50, replicon 1AY93H
[2] = read-out: 2B IC50, HCV replicon 2B
[3] = read-out: 1A Y93H IC50, HCV replicon 1A Y93H
[4] = Hepatitis C virus, read-out: 2B IC50 (nM), replicon 2B
[5] = Hepatitis C virus, read-out: 1A Y93H IC50 (nM), replicon 1AY93H
[6] = Hepatitis C virus, HCV replicon 1A
[7] = Hepatitis C virus, read-out: 2B IC50, HCV replicon 2B
[8] = Hepatitis C virus, read-out: 1A Y93H IC50, HCV replicon 1A Y93H

SMILES | IC50 (HCV replicon 1A; replicon 1A) | IC50 (HCV replicon 2B; read-out: 2B IC50, replicon 2B) | IC50 (HCV replicon 1AY93H; [1]) | IC50 (HCV replicon 1A; HCV replicon 1A) | IC50 (HCV replicon 2B; [2]) | IC50 (HCV replicon 1AY93H; [3]) | further results
CCc1ccc(C2Oc3cc(-c4cnc([C@@H]5CCCN5C(=O)C(NC(=O)OC)C5CCOC(C)(C)C5)[nH]4)cc(F)c3-c3cc4cc(-c5cnc([C@@H]6CCCN6C(=O)C(NC(=O)OC)C6CCOC(C)(C)C6)[nH]5)ccc4n32)s1 (single isomer, unassigned) [Compound 292] | 0.0027 nM | 0.106 nM | 0.044 nM | – | – | – | –
COC(=O)N[C@H](C(=O)N1CCC[C@H]1c1ncc(-c2ccc3c(c2)OC(c2cc(C)c(C)s2)n2c-3cc3cc(-c4cnc([C@@H]5C[C@H]6C[C@H]6N5C(=O)[C@@H](NC(=O)OC)C(C)C)[nH]4)ccc32)[nH]1)C(C)C (single isomer, unassigned) [Compound 502] | – | – | – | 0.0121 nM | 0.0575 nM | 0.575 nM | –
COC(=O)N[C@H](C(=O)N1CCC[C@H]1c1ncc(-c2cc(F)c3c(c2)OC(c2ccc(C(C)C)s2)n2c-3cc3cc(-c4cnc([C@@H]5CCCN5C(=O)[C@@H](NC(=O)OC)C5CCOCC5)[nH]4)ccc32)[nH]1)C(C)C (single isomer, unassigned) [Compound 344] | – | 0.242 nM | 0.128 nM | – | – | – | IC50 (HCV replicon 1A; Hepatitis C virus, replicon 1A): 0.0015 nM
COC(=O)N[C@H](C(=O)N1CCC[C@H]1c1ncc(-c2cc(C)c3c(c2)OC(c2cc4c(s2)CCC4)n2c-3cc3cc(-c4cnc([C@@H]5CCCN5C(=O)[C@@H](NC(=O)OC)C5C[C@@H](C)O[C@@H](C)C5)[nH]4)ccc32)[nH]1)C(C)C (single isomer, unassigned) [Compound 550] | – | – | – | 0.03 nM | 0.0435 nM | 0.154 nM | –
CCc1ccc(C2Oc3cc(-c4cnc([C@@H]5CCCN5C(=O)C(NC(=O)OC)C5C[C@@H](C)O[C@@H](C)C5)[nH]4)cc(F)c3-c3cc4cc(-c5cnc([C@@H]6CCCN6C(=O)[C@@H](NC(=O)OC)C(C)C)[nH]5)ccc4n32)s1 (single isomer, unassigned) [Compound 157] | 0.0021 nM | 2.8 nM | 2.32 nM | – | – | – | –
COC(=O)N[C@H](C(=O)N1CCC[C@H]1c1ncc(-c2cc(F)c3c(c2)OC(c2ccc(C(C)(C)C)s2)n2c-3cc3cc(-c4cnc([C@@H]5CCCN5C(=O)[C@@H](NC(=O)OC)C(C)C)[nH]4)ccc32)[nH]1)C(C)C (single isomer, unassigned) [Compound 62] | – | – | – | – | – | – | IC50 (HCV replicon 1A; Hepatitis C virus, replicon 1A): 0.0014 nM; IC50 (HCV replicon 2B; [4]): 2.88 nM; IC50 (HCV replicon 1AY93H; [5]): 0.69 nM
COC(=O)N[C@H](C(=O)N1CCC[C@H]1c1ncc(-c2cc(C)c3c(c2)OC(c2ccc(C4CC4)s2)n2c-3cc3cc(-c4cnc([C@@H]5CCCN5C(=O)[C@@H](NC(=O)OC)C(C)C)[nH]4)ccc32)[nH]1)C(C)C (single isomer, unassigned) [Compound 752] | – | – | – | 0.0028 nM | 0.6 nM | 2.7 nM | –
CCc1ccc(C2Oc3cc(-c4cnc([C@@H]5CCCN5C(=O)[C@@H](NC(=O)OC)C(C)C)[nH]4)cc(C)c3-c3cc4cc(-c5cnc([C@@H]6CCCN6C(=O)C(NC(=O)OC)C6C[C@@H](C)O[C@@H](C)C6)[nH]5)ccc4n32)s1 (single isomer, unassigned) [Compound 544] | – | – | – | 0.00833 nM | 0.0319 nM | 0.29 nM | –
CCc1ccc(C2Oc3cc(-c4cnc([C@@H]5C[C@H]6C[C@H]6N5C(=O)[C@@H](NC(=O)OC)C(C)C)[nH]4)cc(F)c3-c3cc4cc(-c5cnc([C@@H]6C[C@H]7C[C@H]7N6C(=O)[C@@H](NC(=O)OC)C(C)C)[nH]5)ccc4n32)s1 (single isomer, unassigned) [Compound 50] | – | – | – | – | – | – | IC50 (HCV replicon 1A; Hepatitis C virus, replicon 1A): 0.0014 nM; IC50 (HCV replicon 2B; [4]): 1.39 nM; IC50 (HCV replicon 1AY93H; [5]): 0.0284 nM
COC(=O)N[C@H](C(=O)N1CCC[C@H]1c1ncc(-c2cc(F)c3c(c2)OC(c2ccc(CC4CC4)s2)n2c-3cc3cc(-c4cnc([C@@H]5C[C@H]6C[C@H]6N5C(=O)[C@@H](NC(=O)OC)C(C)C)[nH]4)ccc32)[nH]1)C(C)C (single isomer, unassigned) [Compound 390] | 0.003 nM | 0.754 nM | 0.314 nM | – | – | – | –
COC(=O)N[C@H](C(=O)N1C[C@H](F)C[C@H]1c1nc(-c2ccc3c(c2)cc2n3C(c3cc(C)c(C)s3)Oc3cc(-c4cnc([C@@H]5C[C@@H](F)CN5C(=O)[C@@H](NC(=O)OC)C(C)C)[nH]4)ccc3-2)c[nH]1)C(C)C (mixture of isomers) [Compound 711] | – | – | – | – | – | – | IC50 (HCV replicon 1A; [6]): 0.027 nM; IC50 (HCV replicon 2B; [7]): 0.029 nM; IC50 (HCV replicon 1AY93H; [8]): 0.12 nM
COC(=O)N[C@H](C(=O)N1CCC[C@H]1c1ncc(-c2cc(F)c3c(c2)OC(c2cc(C)c(C)s2)n2c-3cc3cc(-c4cnc([C@@H]5C[C@@H](F)CN5C(=O)[C@@H](NC(=O)OC)C(C)C)[nH]4)ccc32)[nH]1)C(C)C (single isomer, unassigned) [Compound 516] | – | – | – | 0.00191 nM | 5.2 nM | 0.0114 nM | –
COC(=O)N[C@H](C(=O)N1CCC[C@H]1c1ncc(-c2cc(F)c3c(c2)OC(c2ccc(C(C)CF)s2)n2c-3cc3cc(-c4cnc([C@@H]5CCCN5C(=O)[C@@H](NC(=O)OC)C(C)C)[nH]4)ccc32)[nH]1)C(C)C (single isomer, unassigned) [Compound 332] | – | 1.39 nM | – | – | – | – | IC50 (HCV replicon 1A; Hepatitis C virus, replicon 1A): 0.0011 nM; IC50 (HCV replicon 1AY93H; [5]): 0.765 nM
CC[C@@H]1CC(C(NC(=O)OC)C(=O)N2CCC[C@H]2c2ncc(-c3ccc4c(c3)cc3n4C(c4ccc(C5CC5)s4)Oc4cc(-c5cnc([C@@H]6CCCN6C(=O)[C@@H](NC(=O)OC)C(C)C)[nH]5)cc(F)c4-3)[nH]2)C[C@H](CC)O1 (single isomer, unassigned) [Compound 290] | 0.0011 nM | 0.34 nM | 0.19 nM | – | – | – | –
COC(=O)NC(C(=O)N1CCC[C@H]1c1ncc(-c2ccc3c(c2)cc2n3C(c3ccc(C(C)C)s3)Oc3cc(-c4cnc([C@@H]5CCCN5C(=O)[C@@H](NC(=O)OC)C(C)C)[nH]4)cc(F)c3-2)[nH]1)C1CCOC(C)(C)C1 (single isomer, unassigned) [Compound 242] | 0.0011 nM | 4.42 nM | 0.75 nM | – | – | – | –
COC(=O)N[C@H](C(=O)N1CCC[C@H]1c1ncc(-c2cc(F)c3c(c2)OC(c2ccc(CC(C)C)s2)n2c-3cc3cc(-c4cnc([C@@H]5CCCN5C(=O)[C@@H](NC(=O)OC)C(C)C)[nH]4)ccc32)[nH]1)C(C)C (single isomer, unassigned) [Compound 521] | – | – | – | 0.00652 nM | 3.49 nM | 0.695 nM | –
COC(=O)N[C@H](C(=O)N1C[C@H](F)C[C@H]1c1nc(-c2ccc3c(c2)OC(c2ccc(C)s2)n2c-3cc3cc(-c4c[nH]c([C@@H]5C[C@H]6C[C@H]6N5C(=O)[C@@H](NC(=O)OC)C5CCOCC5)n4)ccc32)c[nH]1)C1CCOCC1 (single isomer, unassigned) [Compound 731] | – | – | – | 0.024 nM | 0.021 nM | 0.026 nM | –
CCc1ccc(C2Oc3cc(-c4cnc([C@@H]5CCCN5C(=O)[C@@H](NC(=O)OC)C(C)C)[nH]4)cc(F)c3-c3cc4cc(-c5cnc([C@@H]6C[C@H]7C[C@H]7N6C(=O)C(NC(=O)OC)C6CCOC(C)(C)C6)[nH]5)ccc4n32)s1 (single isomer, unassigned) [Compound 202] | 0.0013 nM | 3.31 nM | 0.49 nM | – | – | – | –
COC(=O)N[C@H](C(=O)N1CCC[C@H]1c1ncc(-c2ccc3c(c2)OC(c2cc(C)c(C)s2)n2c-3cc3cc(-c4cnc([C@@H]5C[C@H]6C[C@H]6N5C(=O)[C@@H](NC(=O)OC)C(C)C)[nH]4)ccc32)[nH]1)C(C)C (single isomer, unassigned) [Compound 503] | – | – | – | 0.0676 nM | 7.51 nM | 1.76 nM | –
CCc1ccc(C2Oc3cc(-c4cnc([C@@H]5CCCN5C(=O)[C@@H](NC(=O)OC)C(C)C)[nH]4)cc(F)c3-c3cc4cc(-c5cnc([C@@H]6C[C@H]7C[C@H]7N6C(=O)C(NC(=O)OC)C6CCOC(C)(C)C6)[nH]5)ccc4n32)s1 (single isomer, unassigned) [Compound 203] | 0.0016 nM | 0.83 nM | 0.12 nM | – | – | – | –
COC(=O)N[C@H](C(=O)N1C[C@H](F)C[C@H]1c1ncc(-c2ccc3c(c2)cc2n3C(c3cc4ccccc4s3)Oc3cc(-c4cnc([C@@H]5CCCN5C(=O)[C@@H](NC(=O)OC)C5CCOCC5)[nH]4)ccc3-2)[nH]1)C(C)C (single isomer, unassigned) [Compound 623] | – | – | – | – | 0.345 nM | 0.0213 nM | IC50 (HCV replicon 1A; [6]): 0.0024 nM
COC(=O)N[C@@H](Cc1ccccc1)C(=O)N1CCC[C@H]1c1ncc(-c2ccc3c(c2)OC(c2ccc(-c4ccc(NC(=O)CCCC[C@@H]5SC[C@@H]6NC(=O)N[C@@H]65)cc4)s2)n2c-3cc3cc(-c4cnc([C@@H]5CCCN5C(=O)[C@H](Cc5ccccc5)NC(=O)OC)[nH]4)ccc32)[nH]1 (single isomer, unassigned) [Compound 383] | 0.0367 nM | 8.74 nM | 6.34 nM | – | – | – | –
CCN(CC)[C@@H](C(=O)N1C[C@H](F)C[C@H]1c1nc(-c2ccc3c(c2)OC(c2ccc(C4CC4)s2)n2c-3cc3cc(-c4c[nH]c([C@@H]5C[C@@H](F)CN5C(=O)[C@@H](c5ccccc5)N(CC)CC)n4)ccc32)c[nH]1)c1ccccc1 (mixture of isomers) [Compound 733] | – | – | – | – | – | – | IC50 (HCV replicon 1A; [6]): 0.045 nM; IC50 (HCV replicon 2B; [7]): 0.063 nM; IC50 (HCV replicon 1AY93H; [8]): 0.35 nM
COC(=O)N[C@H](C(=O)N1CCC[C@H]1c1ncc(-c2cc(F)c3c(c2)OC(c2scc4c2OCCO4)n2c-3cc3cc(-c4cnc([C@@H]5C[C@H](F)CN5C(=O)[C@@H](NC(=O)OC)C(C)C)[nH]4)ccc32)[nH]1)C(C)C (single isomer, unassigned) [Compound 527] | – | – | – | 0.0155 nM | 33.3 nM | 3.06 nM | –
